Among the data in patent publication US20090270350A1, “Pyridinone Pyrazole Urea and Pyrimidinone Pyrazole Urea Derivatives” (PFIZER INC., priority 2006, published 2009) are IC50 values, retold here.

Each structure is given as a SMILES string.

p38α, sequence (Q16539 whole entry): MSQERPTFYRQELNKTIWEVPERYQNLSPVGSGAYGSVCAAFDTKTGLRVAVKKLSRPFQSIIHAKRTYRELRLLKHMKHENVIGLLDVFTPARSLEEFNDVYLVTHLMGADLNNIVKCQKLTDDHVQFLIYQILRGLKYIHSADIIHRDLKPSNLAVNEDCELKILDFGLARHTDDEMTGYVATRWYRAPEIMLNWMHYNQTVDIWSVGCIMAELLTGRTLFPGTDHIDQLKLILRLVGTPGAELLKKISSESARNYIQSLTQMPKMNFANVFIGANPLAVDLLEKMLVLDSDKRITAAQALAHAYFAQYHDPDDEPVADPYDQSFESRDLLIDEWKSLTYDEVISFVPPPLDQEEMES

The assay has as its target p38α (Homo sapiens, UniProt Q16539). The assay can be described thus: p38α/MK2 cascade assay. It counts as biochemical. The note with it: Table 2; same p38α/MK2 cascade assay; 40 minutes preincubation; read-out: p38a/MK2 Cascade 40 min Pre-Incuabtion (% Inhibition): IC50. A digest of the protocol: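 In a cascade format, p38α was preincubated 40 min with inhibitor (1000–0.05 nM) before adding 1 nM nonactive MK2 (54-400), 5 μM MgATP and 0.5 μM FITC-Hsp27 peptide. Reaction ran 60 min in HEPES pH 7.5 with MgCl2, DTT, 2% DMSO, then EDTA-quenched. Peptide phosphorylation was measured by Caliper mobility shift to give IC50.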
As for `COC(=O)c1ccc(C)c(-n2c(C)cc(OCc3ccccc3CNC(=O)Nc3cc(C(C)(C)C)nn3-c3ccc(O)c(Cl)c3)c(Cl)c2=O)c1` [Example 222, methyl 3-{4-[(2-{[({[3-tert-butyl-1-(3-chloro-4-hydroxy-phenyl)-1H-pyrazol-5-yl]amino}carbonyl)amino]-methyl}-benzyl)oxy]-3-chloro-6-methyl-2-oxopyridin-1(2H)-yl}-4-methylbenzoate], the IC50 came out at 9.6 nM. The result for `CNC(=O)c1ccc(C)c(-n2c(C)cc(OCc3ccccc3CNC(=O)Nc3cc(C(C)(C)C)nn3-c3ccc(O)c(Cl)c3)c(Cl)c2=O)c1` [Example 223, 3-{4-[(2-{[({[3-tert-butyl-1-(3-chloro-4-hydroxyphenyl)-1H-pyrazol-5-yl]amino}carbonyl)amino]methyl}benzyl)oxy]-3-chloro-6-methyl-2-oxopyridin-1(2H)-yl}-N,4-dimethylbenzamide] reads 4.6 nM; that for `Cc1ccc(C(=O)NCCO)cc1-n1c(C)cc(OCc2ccccc2CNC(=O)Nc2cc(C(C)(C)C)nn2-c2ccc(O)c(Cl)c2)c(Cl)c1=O` [Example 224, 3-{4-[(2-{[({[3-tert-butyl-1-(3-chloro-4-hydroxyphenyl)-1H-pyrazol-5-yl]amino}carbonyl)amino]methyl}benzyl)oxy]-3-chloro-6-methyl-2-oxopyridin-1(2H)-yl}-N-(2-hydroxyethyl)-4-methylbenzamide], 3.2 nM; that for `COCCNC(=O)c1ccc(C)c(-n2c(C)cc(OCc3ccccc3CNC(=O)Nc3cc(C(C)(C)C)nn3-c3ccc(O)c(Cl)c3)c(Cl)c2=O)c1` [Example 225, 3-{4-[(2-{[({[3-tert-butyl-1-(3-chloro-4-hydroxyphenyl)-1H-pyrazol-5-yl]amino}carbonyl)amino]methyl}benzyl)oxy]-3-chloro-6-methyl-2-oxopyridin-1(2H)-yl}-N-(2-methoxyethyl)-4-methylbenzamide], 3.03 nM.

For `CNC(=O)c1ccc(C)c(-n2c(C)cc(OCc3ccccc3CNC(=O)Nc3cc(C(C)(C)C)nn3-c3ccc(Cl)c(O)c3)c(Cl)c2=O)c1` [Example 226, 3-{4-[(2-{[({[3-tert-butyl-1-(4-chloro-3-hydroxyphenyl)-1H-pyrazol-5-yl]amino}carbonyl)amino]methyl}benzyl)oxy]-3-chloro-6-methyl-2-oxopyridin-1(2H)-yl}-N,4-dimethylbenzamide], the IC50 is 3.6 nM. The result for `Cc1ccc(C(=O)NCC(O)CO)cc1-n1c(C)cc(OCc2ccccc2CNC(=O)Nc2cc(C(C)(C)C)nn2-c2ccc(O)c(Cl)c2)c(Cl)c1=O` (centres unmarked) [Example 227, 3-{4-[(2-{[({[3-tert-butyl-1-(3-chloro-4-hydroxyphenyl)-1H-pyrazol-5-yl]amino}carbonyl)amino]methyl}benzyl)oxy]-3-chloro-6-methyl-2-oxopyridin-1(2H)-yl}-N-(2,3-dihydroxy-propyl)-4-methylbenzamide] reads 2 nM.

`Cc1ccc(C(=O)NCCO)cc1-n1c(C)cc(OCc2ccccc2CNC(=O)Nc2cc(C(C)(C)C)nn2-c2ccc(Cl)c(O)c2)c(Cl)c1=O` [Example 228, 3-{4-[(2-{[({[3-tert-butyl-1-(4-chloro-3-hydroxyphenyl)-1H-pyrazol-5-yl]amino}carbonyl)amino]methyl}benzyl)oxy]-3-chloro-6-methyl-2-oxopyridin-1(2H)-yl}-N-(2-hydroxyethyl)-4-methylbenzamide]: the IC50 was found to be 2.1 nM. The result for `Cc1ccc(C(=O)NCCN(C)C)cc1-n1c(C)cc(OCc2ccccc2CNC(=O)Nc2cc(C(C)(C)C)nn2-c2ccc(O)c(Cl)c2)c(Cl)c1=O` [Example 229, 3-{4-[(2-{[({[3-tert-butyl-1-(3-chloro-4-hydroxyphenyl)-1H-pyrazol-5-yl]amino}carbonyl)amino]methyl}benzyl)oxy]-3-chloro-6-methyl-2-oxopyridin-1(2H)-yl}-N-[2-(dimethylamino)-ethyl]-4-methylbenzamide] reads 2.3 nM; that for `COCCNC(=O)c1ccc(C)c(-n2c(C)cc(OCc3ccccc3CNC(=O)Nc3cc(C(C)(C)C)nn3-c3ccc(Cl)c(O)c3)c(Cl)c2=O)c1` [Example 230, 3-{4-[(2-{[({[3-tert-butyl-1-(4-chloro-3-hydroxyphenyl)-1H-pyrazol-5-yl]amino}carbonyl)amino]methyl}benzyl)oxy]-3-chloro-6-methyl-2-oxopyridin-1(2H)-yl}-N-(2-methoxyethyl)-4-methylbenzamide], 1.92 nM; that for `Cc1ccc(C(=O)NCCN(C)C)cc1-n1c(C)cc(OCc2ccccc2CNC(=O)Nc2cc(C(C)(C)C)nn2-c2ccc(Cl)c(O)c2)c(Cl)c1=O` [Example 231, 3-{4-[(2-{[({[3-tert-butyl-1-(4-chloro-3-hydroxyphenyl)-1H-pyrazol-5-yl]amino}carbonyl)amino]methyl}benzyl)oxy]-3-chloro-6-methyl-2-oxopyridin-1(2H)-yl}-N-[2-(dimethylamino)-ethyl]-4-methylbenzamide], 1.8 nM. The result for `COC(=O)c1ccc(C)c(-n2c(C)cc(OCc3ccc(F)cc3CNC(=O)Nc3cc(C(C)(C)C)nn3-c3ccc(O)cc3)c(Cl)c2=O)c1` [Example 232, methyl 3-{4-[(2-{[({[3-tert-butyl-1-(4-hydroxyphenyl)-1H-pyrazol-5-yl]amino}carbonyl)amino]methyl}-4-fluorobenzyl)-oxy]-3-chloro-6-methyl-2-oxopyridin-1(2H)-yl}-4-methylbenzoate] reads 4.4 nM; that for `Cc1ccc(C(=O)NCC(N)=O)cc1-n1c(C)cc(OCc2ccccc2CNC(=O)Nc2cc(C(C)(C)C)nn2-c2ccc(O)c(Cl)c2)c(Cl)c1=O` [Example 233, N-(2-amino-2-oxoethyl)-3-{4-[(2-{[({[3-tert-butyl-1-(3-chloro-4-hydroxyphenyl)-1H-pyrazol-5-yl]amino}carbonyl)amino]-methyl}benzyl)oxy]-3-chloro-6-methyl-2-oxopyridin-1(2H)-yl}-4-methylbenzamide], 1.5 nM.

`Cc1ccc(C(=O)NCC(O)CO)cc1-n1c(C)cc(OCc2ccccc2CNC(=O)Nc2cc(C(C)(C)C)nn2-c2ccc(Cl)c(O)c2)c(Cl)c1=O` (centres unmarked) [Example 234, 3-{4-[(2-{[({[3-tert-butyl-1-(4-chloro-3-hydroxyphenyl)-1H-pyrazol-5-yl]amino}carbonyl)amino]methyl}benzyl)oxy]-3-chloro-6-methyl-2-oxopyridin-1(2H)-yl}-N-(2,3-dihydroxy-propyl)-4-methylbenzamide]: the IC50 came to 1.3 nM. The result for `COCCNC(=O)c1ccc(C)c(-n2c(C)cc(OCc3ccc(F)cc3CNC(=O)Nc3cc(C(C)(C)C)nn3-c3ccc(Cl)c(O)c3)c(Cl)c2=O)c1` [Example 235, 3-{4-[(2-{[({[3-tert-butyl-1-(4-chloro-3-hydroxyphenyl)-1H-pyrazol-5-yl]amino}carbonyl)amino]methyl}-4-fluorobenzyl)-oxy]-3-chloro-6-methyl-2-oxopyridin-1(2H)-yl}-N-(2-methoxy-ethyl)-4-methylbenzamide] reads 4.2 nM; that for `CNC(=O)c1ccc(C)c(-n2c(C)cc(OCc3ccc(F)cc3CNC(=O)Nc3cc(C(C)(C)C)nn3-c3ccc(O)c(Cl)c3)c(Cl)c2=O)c1` [Example 236, 3-{4-[(2-{[({[3-tert-butyl-1-(3-chloro-4-hydroxyphenyl)-1H-pyrazol-5-yl]amino}carbonyl)amino]methyl}-4-fluorobenzyl)-oxy]-3-chloro-6-methyl-2-oxopyridin-1(2H)-yl}-N,4-dimethyl-benzamide], 7.5 nM. For `COc1ccc(Cn2c(C)cc(OCc3ccccc3CNC(=O)Nc3cc(C(C)(C)C)nn3-c3ccccc3)c(C)c2=O)cc1` [Example 237, 1-(3-tert-butyl-1-phenyl-1H-pyrazol-5-yl)-3-[2-({[1-(4-methoxybenzyl)-3,6-dimethyl-2-oxo-1,2-dihydropyridin-4-yl]oxy}methyl)benzyl]urea] the value was 11.2 nM; for `COCCNC(=O)c1ccc(C)c(-n2c(C)cc(OCc3ccccc3CNC(=O)Nc3cc(C(C)(C)C)nn3-c3cccc(OCCO)c3)c(Cl)c2=O)c1` [Example 238, 3-[4-{[2-({[({3-tert-butyl-1-[3-(2-hydroxyethoxy)phenyl]-1H-pyrazol-5-yl}amino)carbonyl]amino}methyl)benzyl]oxy}-3-chloro-6-methyl-2-oxopyridin-1(2H)-yl]-N-(2-methoxyethyl)-4-methylbenzamide], 2 nM; for `Cc1ccc(C(=O)NCCO)cc1-n1c(C)cc(OCc2ccc(F)cc2CNC(=O)Nc2cc(C(C)(C)C)nn2-c2cccc(OCCO)c2)c(Cl)c1=O` [Example 239, 3-[4-{[2-({[({3-tert-butyl-1-[3-(2-hydroxyethoxy)phenyl]-1H-pyrazol-5-yl}amino)carbonyl]amino}methyl)-4-fluorobenzyl]-oxy}-3-chloro-6-methyl-2-oxopyridin-1(2H)-yl]-N-(2-hydroxy-ethyl)-4-methylbenzamide], 2.9 nM. As for `Cc1ccc(C(=O)NCCN(C)C)cc1-n1c(C)cc(OCc2ccccc2CNC(=O)Nc2cc(C(C)(C)C)nn2-c2cccc(OCCO)c2)c(Cl)c1=O` [Example 240, 3-[4-{[2-({[({3-tert-butyl-1-[3-(2-hydroxyethoxy)phenyl]-1H-pyrazol-5-yl}amino)carbonyl]amino}methyl)benzyl]oxy}-3-chloro-6-methyl-2-oxopyridin-1(2H)-yl]-N-[2-(dimethylamino)-ethyl]-4-methylbenzamide], the IC50 worked out at 2.1 nM. Consider `CSc1ccccc1Cn1c(C)cc(OCc2ccccc2CNC(=O)Nc2cc(C(C)(C)C)nn2-c2ccc(O)cc2)c(C)c1=O` [Example 241, 1-[3-tert-butyl-1-(4-hydroxyphenyl)-1H-pyrazol-5-yl]-3-{2-[({3,6-dimethyl-1-[2-(methylthio)benzyl]-2-oxo-1,2-dihydro-pyridin-4-yl}oxy)methyl]benzyl}urea], for which the IC50 stood at 13.6 nM.
